Test results from patent US12048685B2, “Transient receptor potential cation channel subfamily m member 8 (TRPM8) antagonists and methods of use” (Ora, Inc., priority 2015, dated 2024).
Counter-ions that a name gives are not always drawn.

How the values were obtained:
[1] = Corneal sensitivity measured by Cochet Bonnet after topical dosing; type: in vivo, human
Procedure: (§1) A series of experiments were carried out assessing the clinical signs and symptoms of dry eye disease or severe dry eye disease using a commercially available TRPM8 antagonist, N-(2-Aminoethyl)-N-(4-(benzyloxy)-3-methoxybenzyl)thiophene-2-carboxamide hydrochloride, N-(2-Aminoethyl)-N-[[3-methoxy-4-(phenylmethoxy)phenyl]methyl]-2-thiophenecarboxamide hydrochloride (Sigma Aldrich M8-B hydrochloride (SML0893)), shown below as Compound I, at a concentration of 0.1% (vs placebo), administered unilaterally.
(§2) Post-dose, exposure to Menthol (ROHTO Hydra), as well as to an adverse environment (CAESM), was used to elicit symptomology in 3 patients with healthy eyes. Validated symptom scales were used to collect levels of discomfort secondary to the exposures (Ora Calibra™ Ocular Discomfort Questionnaire, Drop Comfort Questionnaire). A summary of the findings is presented below.
In a first set of experiments, the effect of Compound I on corneal sensitivity was examined. Subjects (shown by initials E-A, KJL, M-C) were dosed with 20 ul of Compound I (0.1%) or a placebo (BSS).

[2] = molecular target: T1, TRPM-8 channels (Homo sapiens, UniProt Q7Z2W7); experiment: Post-menthol treatment symptoms (Drop Discomfort) after dosing, menthol-containing eyedrop (ROHTO Hydra); type: in vivo
T1 construct: from tissue; host or cells: eye (ocular surface) of living human subjects
T1 sequence (Q7Z2W7 whole entry): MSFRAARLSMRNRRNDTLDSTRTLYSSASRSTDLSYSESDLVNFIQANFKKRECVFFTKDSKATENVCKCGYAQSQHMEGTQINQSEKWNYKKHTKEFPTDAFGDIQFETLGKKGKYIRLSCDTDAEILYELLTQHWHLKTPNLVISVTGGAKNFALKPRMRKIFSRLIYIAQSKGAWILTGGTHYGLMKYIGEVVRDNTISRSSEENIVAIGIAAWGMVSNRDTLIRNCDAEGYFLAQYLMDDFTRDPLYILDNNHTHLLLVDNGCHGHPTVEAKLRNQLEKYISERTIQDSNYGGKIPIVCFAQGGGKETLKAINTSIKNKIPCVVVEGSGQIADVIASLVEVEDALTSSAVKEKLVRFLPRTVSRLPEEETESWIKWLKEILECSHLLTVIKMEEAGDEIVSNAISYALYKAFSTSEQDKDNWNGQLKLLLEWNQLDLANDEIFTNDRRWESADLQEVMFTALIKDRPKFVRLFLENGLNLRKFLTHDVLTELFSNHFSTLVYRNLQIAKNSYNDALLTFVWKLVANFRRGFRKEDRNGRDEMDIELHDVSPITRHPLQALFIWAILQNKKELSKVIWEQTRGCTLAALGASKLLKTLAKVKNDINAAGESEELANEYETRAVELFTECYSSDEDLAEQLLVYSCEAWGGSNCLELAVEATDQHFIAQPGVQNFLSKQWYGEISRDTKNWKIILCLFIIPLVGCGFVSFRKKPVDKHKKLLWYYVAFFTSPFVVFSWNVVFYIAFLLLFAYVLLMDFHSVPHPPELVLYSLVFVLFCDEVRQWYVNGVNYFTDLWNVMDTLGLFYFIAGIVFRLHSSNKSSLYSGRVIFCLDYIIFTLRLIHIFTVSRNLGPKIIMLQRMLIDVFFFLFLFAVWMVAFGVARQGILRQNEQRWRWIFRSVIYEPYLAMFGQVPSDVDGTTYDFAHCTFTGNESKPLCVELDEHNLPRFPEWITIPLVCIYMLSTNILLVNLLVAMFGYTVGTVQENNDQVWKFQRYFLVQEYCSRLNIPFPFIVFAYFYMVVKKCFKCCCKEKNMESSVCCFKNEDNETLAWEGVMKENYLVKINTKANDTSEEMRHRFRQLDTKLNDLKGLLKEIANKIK
Source text: Post-dose, exposure to Menthol (ROHTO Hydra), as well as to an adverse environment (CAESM), was used to elicit symptomology in 3 patients with healthy eyes. Validated symptom scales were used to collect levels of discomfort secondary to the exposures (Ora Calibra™ Ocular Discomfort Questionnaire, Drop Comfort Questionnaire). A summary of the findings is presented below. The effect of topical menthol application after dosing with Compound I or placebo was examined. After dosing with Compound I or placebo, 1 drop menthol-containing OTC eyedrop were administered bilaterally (ROHTO Hydra). Menthol is known to act upon TRPM-8 channels, effectively causing neural activity similar in nature to exposure to cold temperature. As such, menthol was used to induce a “cooling” symptom. […] Baseline (pre-menthol) symptoms were “0” for each eye, for all 3 subjects (data not shown).

[3] = Ocular discomfort on exposure to a Controlled Adverse Environment (CAE); type: in vivo, human; conditions: CAE for 25 minutes, asked every 5 minutes, p<0.01, FIGS. 4A and B
Procedure: as §1, §2
The effect of CAE exposure after dosing with Compound I or placebo was examined. After dosing with Compound I or placebo, subjects were exposed to a Controlled Adverse Environment (CAE) for 25 minutes, in order to elicit symptomology similar in nature to dry eye symptoms. An Ocular Discomfort Questionnaire (0-4 scale) was asked every 5 minutes.

[4] = Ocular discomfort on exposure to Turbo-CAE after CAE (severe dry eye symptoms); type: in vivo, human; conditions: 15 minutes of Turbo-CAE after 25-minute CAE, p<0.01, FIGS. 5A and B
Procedure: as §1, §2
Next, the effect of Turbo-CAE exposure after dosing with Compound I or placebo was examined. After 25-minute Controlled Adverse Environment (CAE) exposure, subjects were exposed to 15 minutes of Turbo-CAE, in order to elicit symptomology similar in nature to severe dry eye symptoms. An Ocular Discomfort Questionnaire (0-4 scale) was asked every 5 minutes.

[5] = system: Balb/C mice; conditions: 15 minutes and 24 hours post TRPM8 antagonist dose (0.01%, 0.05%, 0.10%), immediately post menthol dose, water control, FIG. 6
Procedure: Behavioral endpoints, e.g. blinking for balb/cs nice, was tested. […] Treatment of the mice with water was used as a control. TRPM8 antagonist was used at concentrations of 0.01%, 0.05% and 0.10%.

Row | Compound | effect on corneal sensitivity ([1]; 20 ul of 0.1%, unilateral, vs placebo (BSS), 3 subjects with healthy eyes, Cochet Bonnet, FIG. 2) | decrease in sensitivity ([1]; Subject, 70 mm to 65 mm, 20 ul of 0.1%) | changes in sensitivity ([1]; Subjects E-A and M-C, 20 ul of 0.1%) | difference in corneal sensitivity pre- to post-dose ([1]; p=0.42, 3 subjects) | action of menthol (cooling symptom) ([2]; 0.1% dosed before 1 drop menthol-containing OTC eyedrop bilaterally, FIGS. 3A and B) | subject-reported symptom scores (Drop Discomfort, 0-10 scale) vs placebo ([2]; post-menthol, treated eye vs placebo eye, p<0.01, 3 subjects) | symptom scores (Ocular Discomfort Questionnaire, 0-4 scale) vs placebo [3] | symptom scores (Ocular Discomfort Questionnaire, 0-4 scale) vs placebo [4] | blink rate per minute [5]
1 | COc1cc(CN(CCN)C(=O)c2cccs2)ccc1OCc1ccccc1 [Compound I, N-(2-Aminoethyl)-N-(4-(benzyloxy)-3-methoxybenzyl)thiophene-2-carboxamide hydrochloride] | minimal effect | 5 mm | no detectable changes | No significant difference | effectively block the action of menthol | significantly lower symptom scores than placebo | significantly lower symptom scores than placebo | significantly lower symptom scores than placebo | –
2 | CC1CCC(C(C)C)C(O)C1 (stereo not shown) [menthol] | – | – | – | – | – | – | – | – | increase in blink rate
3 | N-(2-Aminoethyl)-N-(4-(benzyloxy)-3-methoxybenzyl)thiophene-2-carboxamide hydrochloride [Compound I] | – | – | – | – | – | – | – | – | reproducibly blocked
